Like-named read-outs stand apart in the source and are kept apart here.
Legend:
[1] = tested on: B16 murine melanoma; experiment: Tissue distribution in C57 BL6 mice bearing B16; type: in vivo, mouse
Method: (§1) The study of the tissue distribution of the ^125 I labelled compounds was performed in mice bearing grafted melanomas (cf. autoradiograms above). […] The animals are sacrificed at different time intervals of 1 to 24 hours after the injection. The blood is collected and the principal organs are excised. Aliquots are weighed and the radioactivity of the samples is measured in a […] 1191 counter (analytic tracer). The counting yield for iodine 125 is 60%. The results are expressed: as a percentage of the injected dose bound per g of tissue (% ID/g); in the form of the ratios [formula] This ratio reflects more precisely the selectivity of a molecule for an organ (tables 2, 4, 6, 8, 10 and 12).

[2] = Tissue distribution in C57 BL6 mice bearing B16; type: in vivo, mouse; settings: mouse, iv, 3 umol/animal
Method: as §1

[3] = kidney, read-out: kidney % ID/g
[4] = muscle, read-out: muscle % ID/g
[5] = plasma, read-out: plasma % ID/g

For `CCNCCNC(=O)c1ccc(I)cc1` [Derivative B, N-(2-ethylaminoethyl) 4-iodo benzamide], the “intratumoral concentrations and ratios compared with A” value ([1]; 4 to 8 h, melanic melanomas, preliminary) was “markedly higher than those observed with A”, the brain/blood ratio ([1]; 1 h) was 2,48 and the eye/blood ratio ([1]; 1 h) was 9,70. For the same compound, the kidney/blood ratio ([1]; 1 h) was 10,92, the liver/blood ratio ([1]; 1 h) was 5,32 and the lungs/blood ratio ([1]; 1 h) was 11,00. The muscle/blood ratio ([1]; 1 h) was 1,95, the plasma/blood ratio ([1]; 1 h) was 0,56 and the tumor/blood ratio ([1]; 1 h) was 4,70. The brain/blood ratio ([1]; 2 h) was 3,11, the eye/blood ratio ([1]; 2 h) was 17,50 and the kidney/blood ratio ([1]; 2 h) was 12,82. The liver/blood ratio ([1]; 2 h) was 5,55, the lungs/blood ratio ([1]; 2 h) was 11,94 and the muscle/blood ratio ([1]; 2 h) was 1,96. The plasma/blood ratio ([1]; 2 h) was 0,60, the tumor/blood ratio ([1]; 2 h) was 8,51 and the brain/blood ratio ([1]; 4 h) was 4,33. For the same compound, the eye/blood ratio ([1]; 4 h) was 39,70, the kidney/blood ratio ([1]; 4 h) was 16,38 and the liver/blood ratio ([1]; 4 h) was 7,58. The lungs/blood ratio ([1]; 4 h) was 16,64, the muscle/blood ratio ([1]; 4 h) was 2,49 and the plasma/blood ratio ([1]; 4 h) was 0,79. For the same compound, the tumor/blood ratio ([1]; 4 h) was 16,17, the brain/blood ratio ([1]; 6 h) was 3,51 and the eye/blood ratio ([1]; 6 h) was 73. For the same compound, the kidney/blood ratio ([1]; 6 h) was 13,04, the liver/blood ratio ([1]; 6 h) was 6,80 and the lungs/blood ratio ([1]; 6 h) was 14,66. The muscle/blood ratio ([1]; 6 h) was 1,47, the plasma/blood ratio ([1]; 6 h) was 0,90 and the tumor/blood ratio ([1]; 6 h) was 36. The “contrast index of melanic tumors vs neighbouring muscles or organs, compared with A” value ([1]; 6 hours) was “the majority of these indices are higher for B than for A”, the brain/blood ratio ([1]; 24 h) was 0,46 and the eye/blood ratio ([1]; 24 h) was 200. The kidney/blood ratio ([1]; 24 h) was 5,24, the liver/blood ratio ([1]; 24 h) was 7,49 and the lungs/blood ratio ([1]; 24 h) was 1,74. The muscle/blood ratio ([1]; 24 h) was 0,75, the plasma/blood ratio ([1]; 24 h) was 0,77 and the tumor/blood ratio ([1]; 24 h) was 16. For the same compound, the “concentrations and tumor/blood ratios compared with A” value ([1]; 24 hours, melanic melanomas, preliminary) was “lower than those of A”, the “marker of the B16 murine melanoma” value ([1]; mouse, in vivo) was “markers of the B16 murine melanoma” and the tissue uptake at 1 h ([2]; blood, read-out: blood % ID/g) was 1.31 %ID/g. The tissue uptake at 2 h ([2]; blood, read-out: blood % ID/g) was 0.67 %ID/g, the tissue uptake at 4 h ([2]; blood, read-out: blood % ID/g) was 0.27 %ID/g and the tissue uptake at 6 h ([2]; blood, read-out: blood % ID/g) was 0.14 %ID/g. It also gave a tissue uptake at 24 h ([2]; blood, read-out: blood % ID/g) of 0.03 %ID/g, a tissue uptake at 1 h ([2]; brain, read-out: brain % ID/g) of 3.26 %ID/g and a tissue uptake at 2 h ([2]; brain, read-out: brain % ID/g) of 2.09 %ID/g. It also gave a tissue uptake at 4 h ([2]; brain, read-out: brain % ID/g) of 1.17 %ID/g, a tissue uptake at 6 h ([2]; brain, read-out: brain % ID/g) of 0.5 %ID/g and a tissue uptake at 24 h ([2]; brain, read-out: brain % ID/g) of 0.01 %ID/g. It also gave a tissue uptake at 1 h ([2]; eye, read-out: eye % ID/g) of 0.45 %ID/g, a tissue uptake at 2 h ([2]; eye, read-out: eye % ID/g) of 0.43 %ID/g and a tissue uptake at 4 h ([2]; eye, read-out: eye % ID/g) of 0.42 %ID/g. For the same compound, the tissue uptake at 6 h ([2]; eye, read-out: eye % ID/g) was 0.38 %ID/g, the tissue uptake at 24 h ([2]; eye, read-out: eye % ID/g) was 0.24 %ID/g and the tissue uptake at 1 h [2, 3] was 14.4 %ID/g. The tissue uptake at 2 h [2, 3] was 8.64 %ID/g, the tissue uptake at 4 h [2, 3] was 4.42 %ID/g and the tissue uptake at 6 h [2, 3] was 1.86 %ID/g. The tissue uptake at 24 h [2, 3] was 0.16 %ID/g, the tissue uptake at 1 h ([2]; liver, read-out: liver % ID/g) was 6.96 %ID/g and the tissue uptake at 2 h ([2]; liver, read-out: liver % ID/g) was 3.72 %ID/g. For the same compound, the tissue uptake at 4 h ([2]; liver, read-out: liver % ID/g) was 2.05 %ID/g, the tissue uptake at 6 h ([2]; liver, read-out: liver % ID/g) was 0.96 %ID/g and the tissue uptake at 24 h ([2]; liver, read-out: liver % ID/g) was 0.22 %ID/g. The tissue uptake at 1 h ([2]; lung, read-out: lungs % ID/g) was 14.4 %ID/g, the tissue uptake at 2 h ([2]; lung, read-out: lungs % ID/g) was 8 %ID/g and the tissue uptake at 4 h ([2]; lung, read-out: lungs % ID/g) was 4.49 %ID/g. The tissue uptake at 6 h ([2]; lung, read-out: lungs % ID/g) was 2.1 %ID/g, the tissue uptake at 24 h ([2]; lung, read-out: lungs % ID/g) was 0.05 %ID/g and the tissue uptake at 1 h [2, 4] was 2.55 %ID/g. It also gave a tissue uptake at 2 h [2, 4] of 1.33 %ID/g, a tissue uptake at 4 h [2, 4] of 0.67 %ID/g and a tissue uptake at 6 h [2, 4] of 0.2 %ID/g. For the same compound, the tissue uptake at 24 h [2, 4] was 0.02 %ID/g, the tissue uptake at 1 h [2, 5] was 0.73 %ID/g and the tissue uptake at 2 h [2, 5] was 0.4 %ID/g. The tissue uptake at 4 h [2, 5] was 0.21 %ID/g, the tissue uptake at 6 h [2, 5] was 0.13 %ID/g and the tissue uptake at 24 h [2, 5] was 0.02 %ID/g. It also gave a tissue uptake at 1 h ([2]; tumor, read-out: tumor % ID/g) of 6.03 %ID/g, a tissue uptake at 2 h ([2]; tumor, read-out: tumor % ID/g) of 5.73 %ID/g and a tissue uptake at 4 h ([2]; tumor, read-out: tumor % ID/g) of 4.36 %ID/g. The tissue uptake at 6 h ([2]; tumor, read-out: tumor % ID/g) was 4.69 %ID/g and the tissue uptake at 24 h ([2]; tumor, read-out: tumor % ID/g) was 0.49 %ID/g.

From US5190741A, “Agents for diagnosing and treating melanomas, aromatic halogenated derivatives usable as such agents and their preparation” (Institut National de la Sante et de la Recherche Medicale …, priority 1989, dated 1993)
